Reference: patent publication US20210380988A1, “Reducing Prominin2-Mediated Resistance to Ferroptotic Cell Death” (University of Massachusetts, priority 2020, published 2021)

Assays:
[1] = test system: Hs578t cells; assay: Survival of adherent cells in response to GPX4 inhibition (crystal violet); assay type: cell-based; conditions: Hs578t
Method: (§1) Cell-based assays: Assays to assess survival in response to matrix detachment were performed as described (Brown C W, 2017). To assay survival in response to GPX4 inhibition, adherent cells in 96 well plates (1.0×10^4 per well) were treated with either DMSO, RSL3, ML210, FIN56 or erastin for 24 hrs with and without ferrostatin-1 or DFO. Subsequently, cells were fixed in 4% paraformaldehyde (Boston BioProducts), stained with crystal violet (Sigma) and read on a microplate reader (Beckman Colter) at absorbance 595. Absorbances were normalized to DMSO.

[2] = test system: MCF10A cells; assay: as above; assay type: cell-based
Method: as §1

[3] = test system: HSF1; assay: HSF1 mRNA, protein, S326 phosphorylation and nuclear localization in MCF10A cells; assay type: cell-based; conditions: 10 uM KRIBB11 with 4HNE or RSL3, 60 minutes
[4] = test system: HCC1806; assay: Viability with RSL3 and KRIBB11 co-treatment; assay type: cell-based; conditions: HCC1806, 10 uM KRIBB11, 24 hours
Method: as §1

[5] = test system: SW480; assay: Viability with RSL3 and KRIBB11 co-treatment; assay type: cell-based; conditions: SW480, 10 uM KRIBB11, 24 hours
Method: as §1

[6] = test system: SW620; assay: Viability with RSL3 and KRIBB11 co-treatment; assay type: cell-based; conditions: SW620, 10 uM KRIBB11, 24 hours
Method: as §1

[7] = test system: prominin2; assay: PROM2 mRNA (qPCR) and prominin2 protein (immunoblot) expression in MCF10A cells; assay type: cell-based; conditions: MCF10A, 10 uM KRIBB11, 25 uM 4HNE or 5 uM RSL3, 60 minutes
Method: Biochemical experiments: Immunoblotting and qPCR were performed as described (Brown C W, 2017). Briefly, for immunoblotting, cell lysates were extracted using radioimmunoprecipitation assay (RIPA) buffer (Boston Bioproducts). Extracts were separated by SDS PAGE using the specified antibodies. Immunoprecipitation was performed on lysates isolated using NP-40 buffer (Boston Bioproducts). Lysates were pre-cleared prior to overnight incubation with the primary antibody and protein A agarose beads (Sigma-Aldrich). Immune complexes were separated by SDS PAGE and immunoblotted as described in figure legends. RNA was isolated from cells (BioBasic) and cDNA was generated using the All in One cDNA Synthesis SuperMix (BioScript Solutions). qPCR was performed using a SYBR green master mix (BioScript Solutions). Sequences for primers used were as follows: […]

[8] = test system: MDA-MB-231 cells; assay: Survival of adherent cells in response to GPX4 inhibition (crystal violet); assay type: cell-based; conditions: MDA-MB-231, prominin2 expression construct vs vector control
Method: as §1

[9] = test system: cancer cell lines; conditions: across hundreds of cancer cells lines; cited from earlier work

SMILES | ability to resist RSL3-induced ferroptosis when co-treated with RSL3 and KRIBB11 ([1]; 10 uM KRIBB11, 24 hours) | death induced by RSL3, FIN56, erastin, or imidazole ketone erastin on chemical inhibition of HSF1 ([2]; otherwise resistant cells, cell line not named at b53, FIG. 16E: MCF10A) | expression, phosphorylation and nuclear localization of HSF1 [3] | ability to resist RSL3-induced ferroptosis when co-treated with RSL3 and KRIBB11 [4] | ability to resist RSL3-induced ferroptosis when co-treated with RSL3 and KRIBB11 [5] | ability to resist RSL3-induced ferroptosis when co-treated with RSL3 and KRIBB11 [6] | upregulation of PROM2 mRNA and prominin2 protein expression in response to either 4HNE or RSL3 [7] | sensitivity to compound in prominin2 knock-down cells compared to control cells ([1]; prominin2 siRNA 48 hours, compound 24 hrs) | cell death in response to compound with exogenous prominin2 expression [8] | sensitivity to compound in prominin2 knock-down cells compared to control cells ([2]; MCF10A, prominin2 siRNA 48 hours, compound 24 hrs) | correlation of high prominin2 expression with response to compound [9]
CNc1ccc([N+](=O)[O-])c(Nc2ccc3[nH]ncc3c2)n1 [KRIBB11, N(2)-(1H-indazole-5-yl)-N(6)-methyl-3-nitropyridine-2,6-diamine] | significantly reduced | sensitized otherwise resistant cells to death | neither the expression, phosphorylation nor nuclear localization of HSF1 was affected | significantly reduced | significantly reduced | significantly reduced | prevented the upregulation |  |  |  | 
Cc1onc(C(=O)N2CCN(C(c3ccc(Cl)cc3)c3ccc(Cl)cc3)CC2)c1[N+](=O)[O-] [ML210] |  |  |  |  |  |  |  | significant increase in sensitivity | sufficient to inhibit cell death | significant increase in sensitivity | significantly correlated with resistance
